Key:
Aurora Kinase A = biological target: T1, Aurora Kinase A (Homo sapiens, UniProt O14965); experiment: Biochemical enzyme assay for Aurora A activity (Caliper LC3000 / Desktop Profiler mobility shift); conditions: GST-Aurora A, 15 μM ATP, 90 min at 25° C.; LC3000 or Desktop Profiler; read-out: Aurora Kinase A IC50
T1 construct: full length Aurora A (1-403 amino acids); purchased Carna Biosciences 05-101
T1 sequence (O14965 1-403): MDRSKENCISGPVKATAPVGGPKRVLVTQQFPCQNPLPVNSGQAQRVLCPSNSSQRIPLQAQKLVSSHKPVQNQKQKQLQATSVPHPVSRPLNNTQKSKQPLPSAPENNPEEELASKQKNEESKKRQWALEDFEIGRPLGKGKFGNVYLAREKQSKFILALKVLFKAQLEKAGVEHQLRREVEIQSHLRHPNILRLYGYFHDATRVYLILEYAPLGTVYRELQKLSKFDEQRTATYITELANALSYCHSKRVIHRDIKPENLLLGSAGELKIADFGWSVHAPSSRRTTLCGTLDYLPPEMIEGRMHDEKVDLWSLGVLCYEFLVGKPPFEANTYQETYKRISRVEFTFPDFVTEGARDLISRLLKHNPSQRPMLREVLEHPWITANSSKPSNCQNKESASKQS
Protocol: (§1) The Aurora assays described here were performed on two Caliper Life Sciences systems, the LC3000 and the Desktop Profiler. These provide data on enzyme activity via measurement of the relative amounts of phosphorylated or unphosphorylated fluorescently labelled substrate peptide at the end of an enzymatic reaction. These different states of peptide are resolved by applying a potential difference across the sample. The presence of a charged phosphate group on the product (as opposed to the substrate) causes a different peptide mobility between the two peptides. This is visualized by excitation of a fluorescent label on the substrate and product peptides and represented as peaks within the analysis software.
In order to measure inhibitor activity of Aurora A inhibitors in the Caliper Life Sciences LC3000, a TTP Mosquito liquid handling instrument was used to place 0.25 μl of an appropriate concentration of inhibitor in 100% DMSO (for a dose response curve calculation) into each well of a 384-well plate.
The reaction was incubated for 90 min at 25° C., and then stopped by the addition of 70 μl of Stop buffer (100 mM HEPES pH 7.5, 0.015% Brij-35, 10 mM EDTA (Sigma, E7889)).
The plate was read on a Caliper LC 3000 in an Off-Chip mobility shift assay format, using the following parameters for a 12-sipper chip: screening pressure −1.8 psi, upstream voltage −2700, downstream voltage −1000. These conditions cause unphosphorylated substrate and phosphorylated product peptide to resolve as separate peaks allowing direct measurement of percentage of conversion of substrate to product.
(§2) The Desktop Profiler utilizes the same prinicipal as the LC 3000 for calculating percentage conversion of a substrate to product. Caliper Life Sciences provided proprietary flash frozen pre-made 384 well plates containing selected kinases. Each column in the 384 well plate contained a particular selected kinase. A second plate, the ‘substrate plate’ contained a mix of fluorescently labeled peptide substrate and ATP. These were arranged in columns so that transfer for substrate plate to enzyme plate provided the correct enzyme with the correct substrate/ATP concentration.
(§3) Compounds were added to a thawed enzyme plate in the desired format, in single concentrations. Reactions were initiated by transfer of the substrate/ATP mix from the substrate plate. The enzyme plate was incubated for 90 mins at 25° C. The reaction was stopped by addition of 70 μl of Stop Buffer (100 mM HEPES pH 7.5, 0.015% Brij-35, 10 mM EDTA (Sigma, E7889)).
Plates were read in a manner identical to that of the LC3000, and the ratio between substrate and product peaks provided the activity of the enzyme in that well.

Aurora Kinase B = Aurora Kinase B (Homo sapiens, UniProt Q96GD4); experiment: Biochemical enzyme assay for Aurora B activity (Caliper mobility shift); conditions: LC3000 or Desktop Profiler
Aurora Kinase B, sequence (Q96GD4 whole entry): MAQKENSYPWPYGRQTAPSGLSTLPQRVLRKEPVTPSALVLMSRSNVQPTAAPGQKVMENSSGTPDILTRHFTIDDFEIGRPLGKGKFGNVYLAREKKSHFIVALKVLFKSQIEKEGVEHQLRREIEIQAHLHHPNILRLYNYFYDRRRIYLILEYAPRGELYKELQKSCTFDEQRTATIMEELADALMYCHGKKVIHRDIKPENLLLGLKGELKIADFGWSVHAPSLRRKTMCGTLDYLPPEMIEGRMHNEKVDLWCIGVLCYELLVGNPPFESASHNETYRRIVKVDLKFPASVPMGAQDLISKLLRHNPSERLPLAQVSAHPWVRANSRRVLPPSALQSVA
Protocol: as §1, §2, §3
Plates were read in a manner identical to that of the LC3000, and the ratio between substrate and product peaks provided the activity of the enzyme in that well. This was best represented by a plate heat map which colors each well by percent inhibition as compared to positive and negative controls (no inhibitors and no ATP respectively).

SMILES	IC50 (Aurora Kinase A)	IC50 (Aurora Kinase B)
Nc1ccc(NC(=O)c2ccccc2C(F)(F)F)cc1 [Compound 5, N-(4-Aminophenyl)-2-trifluoromethyl-benzamide]	1 to 300 nM	1 to 300 nM
Nc1ccc(NC(=O)c2ccc(C(F)(F)F)cc2)cc1 [Compound 6, N-(4-Aminophenyl)-4-trifluoromethyl-benzamide]	1 to 300 nM	1 to 300 nM
Nc1ccc(NC(=O)c2c(F)cccc2F)cc1 [Compound 9, N-(4-Aminophenyl)-2,6-difluoro-benzamide]	1 to 300 nM	1 to 300 nM
O=C(Nc1ccc(Nc2ccnc3[nH]c(=O)ccc23)cc1)c1ccccc1C(F)(F)F [Compound 37, 2-Trifluoromethyl-N-(4-(7-oxo-7,8-dihydro-1,8-naphthyridin-4-yl-amino)phenyl)benzamide]	601 to 1000 nM	601 to 1000 nM
O=C(Nc1ccc(Nc2ccnc3[nH]c(=O)ccc23)cc1)c1ccc(C(F)(F)F)cc1 [Compound 38, 4-Trifluoromethyl-N-(4-(7-oxo-7,8-dihydro-1,8-naphthyridin-4-yl-amino)phenyl)benzamide]	> 1000 nM	> 1000 nM
O=C(Nc1ccc(Nc2ccnc3[nH]c(=O)ccc23)cc1)c1cccc(C(F)(F)F)c1F [Compound 39, 2-Fluoro-3-Trifluoromethyl-N-(4-(7-oxo-7,8-dihydro-1,8-naphthyridin-4-yl-amino)phenyl)benzamide]	> 1000 nM	> 1000 nM
O=C(Nc1ccc(Nc2ccnc3nc(Cl)ccc23)cc1)c1ccccc1 [Compound 63, N-(4-(7-Chloro-1,8-naphthyridin-4-yl-amino)phenyl)benzamide]	1 to 300 nM	
CN(C)C1CCN(c2ccc3c(Nc4ccc(C(=O)Nc5ccccc5)cc4)ccnc3n2)CC1 [Compound 64]	1 to 300 nM	
CN(C)CCCOc1ccc2c(Nc3ccc(C(=O)Nc4ccccc4)cc3)ccnc2n1 [Compound 69, N-(4-(7-(4-Dimethylamino-propoxy)-1,8-naphthyridin-4-yl-amino)phenyl)benzamide]	> 1000 nM	
CC(C)(C)C(=O)Nc1nccc(Cl)c1C(=O)c1ccccc1 [Compound 73, N-(3-Benzoyl-4-chloropyridin-2-yl)-2,2-dimethylpropanamide]	1 to 300 nM	
Nc1nccc(Cl)c1C(=O)c1ccccc1 [Compound 74, (2-Amino-4-chloro-pyridin-3-yl)-phenyl-methanone]	1 to 300 nM	
CC(C)(C)OC(=O)c1c(-c2ccccc2)c2c(Cl)ccnc2[nH]c1=O [Compound 75, 5-Chloro-2-oxo-4-phenyl-1,2-dihydro-1,8-naphthyridi-3-carboxylic acid tert-butyl ester]	1 to 300 nM	
O=C(Nc1ccc(Nc2ccnc3[nH]c(=O)c(C(=O)O)c(-c4ccccc4)c23)cc1)c1ccc(F)c(F)c1 [Compound 76, 5-[(3,4-Difluoro-benzoylamino)-phenylamino]-2-oxo-4-phenyl1,2-dihydro-1,8-naphthyridine-3-carboxylic acid]	1 to 300 nM	
CN(C)CCNC(=O)c1c(-c2ccccc2)c2c(Nc3ccc(NC(=O)c4ccc(F)c(F)c4)cc3)ccnc2[nH]c1=O [Compound 77, 5-[(3,4-Difluoro-benzoylamino)-phenylamino]-2-oxo-4-phenyl-1,2-dihydro-1,8-naphthyridine-3-carboxylic acid (2-dimethylamino-ethyl)-amide]	> 1000 nM	
O=C(Nc1ccc(Nc2ccnc3[nH]c(=O)c(C(=O)NCCO)c(-c4ccccc4)c23)cc1)c1ccc(F)c(F)c1 [Compound 78, 5-[(3,4-Difluoro-benzoylamino)-phenylamino]-2-oxo-4-phenyl-1,2-dihydro-1,8-naphthyridine-3-carboxylic acid (2-hydroxy-ethyl)-amide]	1 to 300 nM	
O=C(Nc1ccc(Nc2ccnc3[nH]c(=O)c(C(=O)NC[C@H](O)CO)c(-c4ccccc4)c23)cc1)c1ccc(F)c(F)c1 [Compound 79, 5-[(3,4-Difluoro-benzoylamino)-phenylamino]-2-oxo-4-phenyl-1,2-dihydro-1,8-naphthyridine-3-carboxylic acid ((S)2,3-dihydroxypropyl)-amide]	> 1000 nM	
O=C(O)Cc1cc2c(Cl)ccnc2[nH]c1=O [Compound 80, (5-Chloro-2-oxo-1,2-dihydro-1,8-naphthyridin-3-yl)-acetic acid]	1 to 300 nM	
O=C(Cc1cc2c(Nc3ccc(NC(=O)c4ccc(F)c(F)c4)cc3)ccnc2[nH]c1=O)NCCO [Compound 82]	1 to 300 nM	
Nc1ncnc(Nc2ccc(NC(=O)c3ccccc3)cc2)c1C=O [Compound 83, N-[4-(6-Amino-5-formyl-pyrimidin-4-ylamino)-phenyl]-benzamide]	> 1000 nM	
COC(=O)c1cc2c(Nc3ccc(NC(=O)c4ccccc4)cc3)ncnc2[nH]c1=O [Compound 84, 4-(4-Benzoylamino-phenylamino)-7-oxo-7,8-dihydro-pyrido[2,3-d]pyrimidine-6-carboxylic acid methyl ester]	> 1000 nM	
O=C(Nc1ccc(Nc2ncnc3[nH]c(=O)c(C(=O)O)cc23)cc1)c1ccccc1 [Compound 85, 4-(4-Benzoylamino-phenylamino)-7-oxo-7,8-dihydro-pyrido[2,3-d]pyrimidine-6-carboxylic acid]	> 1000 nM	
CN(C)CCNC(=O)c1cc2c(Nc3ccc(NC(=O)c4ccccc4)cc3)ncnc2[nH]c1=O [Compound 86, 4-(4-Benzoylamino-phenylamino)-7-oxo-7,8-dihydro-pyrido[2,3-d]pyrimidine-6-carboxylic acid 2-(dimethylamino-ethyl)-amide]	> 1000 nM	601 to 1000 nM
O=C(Nc1ccc(Nc2ccnc3[nH]c(=O)c([N+](=O)[O-])cc23)cc1)c1ccc(F)c(F)c1 [Compound 87, 3,4-Difluoro-N-(4-(6-nitro-7-oxo-7,8-dihydro-1,8-naphthyridin-4-ylamino)phenyl)benzamide]	1 to 300 nM	
O=C(Nc1ccc(Nc2ccnc3[nH]c(=O)c([N+](=O)[O-])cc23)cc1)c1ccc(F)cc1C(F)(F)F [Compound 88, 4-Fluoro-2-trifluoromethyl-N-(4-(6-nitro-7-oxo-7,8-dihydro-1,8-naphthyridin-4-yl-amino)phenyl)benzamide]	1 to 300 nM	
Nc1cc2c(Nc3ccc(NC(=O)c4ccc(F)c(F)c4)cc3)ccnc2[nH]c1=O [Compound 89, 3,4-Difluoro-N-(4-(6-amino-7-oxo-7,8-dihydro-1,8-naphthyridin-4-yl-amino)phenyl)benzamide]	1 to 300 nM	1 to 300 nM
Nc1cc2c(Nc3ccc(NC(=O)c4ccc(F)cc4C(F)(F)F)cc3)ccnc2[nH]c1=O [Compound 90, 4-Fluoro-2-trifluoromethyl-N-(4-(6-amino-7-oxo-7,8-dihydro-1,8-naphthyridin-4-yl-amino)phenyl)benzamide]	1 to 300 nM	1 to 300 nM
O=C(Nc1ccc(Nc2ccnc3[nH]c(=O)cc(O)c23)cc1)c1ccc(F)cc1C(F)(F)F [Compound 91, 4-Fluoro-N-[4-(5-hydroxy-7-oxo-7,8-dihydro-[1,8]naphthyridin-4-ylamino)-phenyl]-2 trifluoromethyl-benzamide]	1 to 300 nM	1 to 300 nM
O=C(Nc1ccc(Nc2ccnc3[nH]c(=O)cc(O)c23)cc1)c1ccccc1 [Compound 92, N-[4-(5-Hydroxy-7-oxo-7,8-dihydro-[1,8]naphthyridin-4-ylamino)-phenyl]-benzamide]	1 to 300 nM	1 to 300 nM
O=C(Nc1ccc(Nc2ccnc3[nH]c(=O)cc(OCC4CC4)c23)cc1)c1ccccc1 [Compound 93, N-[4-(5-Cyclopropylmethoxy-7-oxo-7,8-dihydro-[1,8]naphthyridin-4-ylamino)-phenyl]benzamide]	1 to 300 nM	1 to 300 nM

Source: US20110269758A1, “NAPHTHYRIDINONES AS PROTEIN KINASE INHIBITORS” (MERCK PATENT GMBH, priority 2008, published 2011)
